The source of these data is patent US20260083693A1, “PHARMACEUTICAL COMPOSITION FOR THE ACUTE TREATMENT OF MIGRAINE AND OTHER FORMS OF HEADACHE” (priority 2024, published 2026).

The conditions of series [1]: cited from earlier work.
The conditions of series [2]: topical sustained release composition, at three hours; cited from earlier work.
Series [3] is described as follows: Pharmacokinetic (bioavailability) study of ibuprofen + ketoprofen nasal spray in healthy adult human subjects, plasma by LC-MS/MS. The protocol:
Pharmacokinetic study to evaluate the bioavailability of the pharmaceutical composition prepared according to the present disclosure.
Blood samples were centrifuged at about 4000 rpm for 10 minutes at 4±2° C. to separate the plasma. The resulting plasma was equally transferred into 2. These aliquots were stored frozen, upright in a freezer within 90 minutes of blood collection time of each sample at a temperature of −70° C. […] until they were analyzed.
Sample values below the LLOQ were reported as Below Quantification Limit (BQL). Pharmacokinetic parameters were calculated using Phoenix® WinNonlin® software (version: 8.3). The following parameters were calculated:
Primary pharmacokinetic parameters: Cmax, AUC0-t and AUC0-∞ Secondary pharmacokinetic parameters: tmax, t1/2, Kel and AUC_% Extrap_obs.

Molecules are shown by their SMILES. Read-outs that look alike come from different tables or passages of the source.

For the compound `CC(C(=O)O)c1cccc(C(=O)c2ccccc2)c1` (stereo not drawn) [ketoprofen], in series [1] (oral ketoprofen, dose 50 mg), the peak plasma concentration was 2.6 µg/mL and the “time of peak plasma concentration” value was 134 min. Further, the “peak plasma concentration of ketoprofen” value in series [2] is listed as “at most 450 ng/ml”.

The AUC(0-inf) is total exposure, with the tail of the curve extrapolated. The Cmax is the highest concentration seen after dosing. As for `CC(C)Cc1ccc(C(C)C(=O)O)cc1` (stereo not drawn) [ibuprofen], the AUC(0-inf) in series [3] (human, in vivo, inhaled or intranasal, AUC0-∞ range over the dose range of the composition, intranasal, dosage unit 0.4-8 mg ibuprofen and 0.025-0.48 mg ketoprofen) is 0.133 to 1.92 µg·h/mL. In series [3] (human, in vivo, inhaled or intranasal, plasma Cmax range over the dose range of the composition, intranasal, dosage unit 0.4-8 mg ibuprofen and 0.025-0.48 mg ketoprofen), the Cmax fell in the range of 0.0414 to 0.828 µg/mL. Further, the Cmax in series [3] (human, in vivo, inhaled or intranasal, plasma Cmax, intranasal, 8 sprays (100 μL each), printed as equivalent to 1.816 mg ibuprofen and 0.24 mg ketoprofen) is 0.165 µg/mL. In series [3] (intranasal 8 sprays vs oral 200 mg ibuprofen / 12.5 mg ketoprofen), the “Cmax lower than expected Cmax of minimum approved oral dose” value was “approximately 100 times”. Further, in series [1] (oral ibuprofen 200 mg, as reported in the literature), the “expected Cmax for the minimum approved oral dose” value is listed as “approximately 17.3 μg/mL”. In addition, in series [1] (oral ibuprofen, 400 mg), the maximum plasma concentration is 32.8 µg/mL and the “time of maximum plasma concentration” value was 90 min. Besides, in series [1] (oral ibuprofen, dose 100 mg), the peak plasma concentration was 9.5 µg/mL and the “time of peak plasma concentration” value was 116 min.
